Experimental findings from US12016933B2, “Method for stimulating axonal regeneration” (The Hong Kong University of Science and Technology, priority 2020, dated 2024) are described below.

The test system of series [1] is adult DRG neurons. Put plainly: Axon elongation of replated adult DRG neurons after shRNA/AAV treatment (Tuj1 staining, longest neurite). The series is classed as cell-based, mouse. The note with it: for effect on axon regrowth / axon growth of DRG neurons: shRNA in WT DRG neurons vs control shRNA.
Series [2] relates to cortical neurons. Nature of the series: Lipid profile of cultured cortical neurons by UPLC-MS. The series is classed as cell-based, mouse. As for the experimental part:
(§1) Cortical neurons were cultured as previously described. In short, the cortex from E18 C57/B6 mice of both genders was dissected and digested in 0.5 mg/mL papain for 30 min. Then, 100 μL fetal bovine serum (HyClone) was added to inactivate papain. The cells were then placed into Neurobasal medium (Gibco), supplemented with B27 (Gibco) and 1% penicillin-streptomycin (10,000 U/mL; Gibco). AraC (100 nM; Sigma) was used to inhibit glial proliferation in DIV1-DIV3. After 10 days of culture with AAV-scramble, AAV-shLipin1, AAV-shDgat1 or AAV-shDgat2, cells were harvested, and then TG or PC levels were measured according to the manufacturer's protocol (ab65336 and ab83377).
Lipid extraction was performed using the Folch method. Cortical neurons were lysed in a 2:1 chloroform:methanol mixture. After the upper phase was siphoned, the solvent was dried by line blowing with nitrogen. Lipid extracts were analyzed using a Synapt G2 HDMS mass spectrometer coupled with an ACQUITY UPLC system (Waters, Milford, USA). The UPLC separation was carried out using a Charge Surface Hybrid column (particle size: 1.7 μm; length: 100 mm; i.d.: 2.1 mm). The mobile phase consisted of solvent A (0.1% formic acid in water, v/v) and solvent B (0.1% formic acid in acetonitrile, v/v), each with 10 mM ammonium acetate. The elution gradient conditions were as follows: 0 min, 40% B; 2 min, 43% B; 2-2.1 min, 50% B; 12 min, 54% B; 12.1 min, 70% B; 12.1-18 min, 99% B. The flow rate was 0.2 mL min^−1, and the injection volume was 2 μL. A two minutes post-run time was set to fully equilibrate the column. Column temperature and sample chamber temperature were set to 55° C. and 6° C., respectively. […]
Because PAP activity is critical for Lipin1-dependent axon growth, it was hypothesized that Lipin1 may control axon regrowth by regulating glycerolipid synthesis in neurons. […] Glycerolipid levels were directly measured after eliminating glial cells by adding cytosine arabinoside (AraC) to the culture. […] Lipid extraction of cortical neurons was analyzed by ultra-performance liquid chromatography-mass spectrometry (UPLC-MS) system. […]

In series [3] the test system is cortical neurons. Put plainly: Total TG and PC levels in cortical neurons by enzymatic hydrolysis assays. The series is classed as cell-based, mouse. The note with it: lipid hydrolysis assay, DGAT1 or DGAT2 depletion. As for the experimental part:
as §1
Because UPLC-MS might not identify all lipid molecular species, the total TG and PC levels were further measured by performing enzymatic hydrolysis assays. TG levels were decreased by 40% after Lipin1 depletion (FIG. 3E). […] Because injury triggers Lipin1 elevation in RGCs, the data on lipid changes after Lipin1 KD indicate that axotomy may program lipid metabolism to increase triglyceride and decrease PL production. This injury-triggered bias in lipid synthesis may contribute to the declined axon growth in CNS neurons. By depleting Lipin1, injured neurons may redirect two arms of the branch and shift lipid storage to membrane lipid production for axon regrowth.

Series [4] relates to DRG neurons. Nature of the series: Axon elongation of cultured DRG neurons treated with inhibitor compounds. It is filed as cell-based, mouse. The note with it: for axon regrowth / axon regeneration in DRG neuron culture: one day after compound treatment, A-922500 500 nM, pradigastat 1 μM, PF combination 10 μM each; for axon elongation in dissociated primary DRG neuron culture: Atglistatin 10 μM, KLH-45 10 μM (figure legend), vs DMSO vehicle. As for the experimental part:
DRG primary culture and replating were performed as previously described. In brief, for primary culture, L4-L6 DRGs from 7-8 weeks wild-type mice of both genders were dissected and then digested in 0.5% collagenase for 1.5 h. After termination of digestion, DRGs were pipetted 20-30 times in a tube for complete dissociation. Neurobasal-A with B27 as a supplement was used as a medium for DRG culture. Virus was added at 1 day in vitro (DIV1) for genetic manipulation. […]
For replating DRG neuron culture, at DIV9-11 of primary DRG culture, cells were gently pipetted on culture dishes. Cells were flushed by 20-30 rounds of pipetting in each well of a 6-well plate. After all the cells were resuspended, they were replated onto a 24-well plate. Fixation and staining were performed 24 h after replating. Tuj1 staining was used to visualize axons and cell bodies of neurons. The lengths of the longest neurites from each DRG neuron were measured manually by NeuronJ in ImageJ. Average lengths of 10-20 neurites from 3 individual mice were used in each group.
In the final step of the glycerol phosphate pathway DGAT enzymes catalyze DGs into TGs. To assess the effect of blocking the DGAT enzyme, commercially available, DGAT1 inhibitors were used in culture. A-922500 (500 nM) and pradigastat (1 μM) were individually tested in a culture medium of DRG neurons. A combination of PF-06424439 (10 μM) and PF-046201101 (10 μM) was also tested in a culture medium of DRG neurons. […] Then, a KD experiment was performed by transfecting Dgat1 shRNA (shDgat1) targeting SEQ ID NO: 8, Dgat2 shRNA (shDgat2) targeting SEQ ID NO: 9 into DRG neurons. […] Because axotomy increases Lipin1 expression in RGCs, a study was conducted to determine whether DGAT enzymes were also regulated by axonal injury.

Series [5] concerns DRG neurons. Nature of the series: Lipid droplet formation in cultured DRG neurons (BODIPY staining). The series is classed as cell-based, mouse. The note with it: cultured adult DRG neurons, three days, vs DMSO vehicle. The procedure: DRG primary culture and replating were performed as previously described. In brief, for primary culture, L4-L6 DRGs from 7-8 weeks wild-type mice of both genders were dissected and then digested in 0.5% collagenase for 1.5 h. After termination of digestion, DRGs were pipetted 20-30 times in a tube for complete dissociation. Neurobasal-A with B27 as a supplement was used as a medium for DRG culture. Virus was added at 1 day in vitro (DIV1) for genetic manipulation. Atglistatin (10 μM), KLH-45 (1 μM), paradigastat (1 μM) or A-922500 (500 nM) treatment was used for ATGL, DDHD2 or DGAT1 inhibition.
For BODIPY staining on cultured DRG neurons, cells were first fixed in 4% PFA for 10 min and permeabilized with 0.1% Triton X-100 in 4% NGS. After cells were blocked, the Tuj1 antibody was applied in blocking buffer and incubated at 4° C. overnight. Coverslips were then washed three times with PBS and incubated with secondary antibodies at room temperature for 2 h. Cells were finally incubated with 200 nM BODIPY (Sigma) in blocking buffer for 30 min before mounting.
Experiments were performed to manipulate TG lipases in vitro. In cultured adult DRG neurons with vehicle treatment, lipid droplets were barely detected (FIG. 4B), consistent with the notion that neurons constantly turn over TGs with minimum storage. […] Then, the function of TG lipases was examined in axon regeneration in vivo. […]

Series [6] concerns sensory axons in the sciatic nerve. Put plainly: Sciatic nerve crush, sensory axon regeneration (SCG10 staining). It is filed as in vivo, mouse. The note with it: WT mice, i.p. KLH-45 30 mg/kg/day, Atglistatin 40 mg/kg/day, 5 days before and 2 days after injury; two days regrowth. The procedure:
KLH-45 (30 mg/kg/day) or Atglistatin (40 mg/kg/day) were delivered by intraperitoneal injection for 5 consecutive days before injury and 2 days after injury. The same dosage of DMSO injection was used as a control treatment. Sciatic nerve injury was performed as previously described. Briefly, after an incision was made on the skin at the middle thigh level, muscle was gently dissected to expose the sciatic nerve. Then, the sciatic nerve was crushed for 10 s by forceps (Dumont #2; Fine Science Tools). For the sham group, the sciatic nerve was only exposed but not crushed.
Sciatic nerve sections with SCG10 staining were used to quantify the regeneration index. A column with a width of 50 pixels was drawn at different distances from the lesion center, and the average intensity of SCG10 staining was measured using ImageJ. The distance between the lesion center and the column with half the intensity of the lesion center was considered as the regeneration index.
Consistently, Ddhd2 KD in isolated DRG neurons suppressed axon elongation in culture, and as a positive control Lipin1 KD increased the axon length. Then, vehicle KLH-45, or KLH-45 combined with Atglistatin was systematically administered into WT mice. The sciatic nerve was then crushed, and the sensory axons were allowed to regrow for two days before examination. […]

Where [7] appears, read: after Dgat1 KD, compared to the control shRNA group.

Regarding “shDgat1: Dgat1 shRNA targeting SEQ ID NO: 8 (GCCCTTCAAGGATATGGACT; the letters are possibly those of the target site)”, the “effect on axon regrowth / axon growth of DRG neurons” value in series [1] was “significantly boosted axon growth”. For the same molecule, the “identified TG species levels” value in series [2] (after Dgat1 KD vs control shRNA) is “decreased”. In series [2] (setting [7]), the “PC(29:1) increase” value is listed as “more than eightfold” and the “PC(36:2) increase” value is “more than eightfold”. In addition, in series [3], the PC content result is listed as “increased” and the “TG level in neurons” value is listed as “decreased the TG level”.
For `O=C(O)C[C@H]1CC[C@H](c2ccc(-c3ccc(Nc4ccc(C(F)(F)F)nc4)cn3)cc2)CC1` [pradigastat], the “axon regrowth / axon regeneration in DRG neuron culture” value in series [4] was “demonstrated axon regrowth”.
Take `O=C(N(CCc1ccccc1)C1CCCCC1)n1ncc(-c2ccc(OC(F)(F)F)cc2)n1` [KLH-45]: in series [5], the “TG storage in neurons (lipid droplet formation)” value is on record as “dramatically increased TG storage”. Further, the “axon elongation in dissociated primary DRG neuron culture” value in series [4] is listed as “significantly inhibited axon elongation”. Moreover, the “spontaneous sensory axon regeneration after sciatic nerve crush” value in series [6] is given as “modestly inhibited”.
With `CN(C)C(=O)Nc1cccc(-c2ccc(N(C)C)cc2)c1` [Atglistatin], the “TG storage in neurons (lipid droplet formation)” value in series [5] is “dramatically increased TG storage”. Moreover, the “axon elongation in dissociated primary DRG neuron culture” value in series [4] was “significantly inhibited axon elongation”.
As to “shDgat2: Dgat2 shRNA targeting SEQ ID NO: 9 (GCTACTTCCGAGACTACTTT; target site or template, no part of the molecule)”, the “effect on axon regrowth / axon growth of DRG neurons” value in series [1] is given as “significantly boosted axon growth”. For the same molecule, in series [3], the PC content entry was “increased” and the “TG level in neurons” value is “decreased the TG level”.
As for “Lipin1 shRNA: short hairpin RNA against Lipin1, plasmid transfected into DRG neurons (CGGAACTCTGTAGACAGAAT)”, the “axon elongation enhanced by” value in series [1] (shRNA plasmid transfected for three days, replated, fixed 24 h after replating, vs control shRNA) stood at 20%.
In the case of `O=C(Nc1ccccc1)Nc1ccc(-c2ccc(C(=O)[C@@H]3CCC[C@H]3C(=O)O)cc2)cc1` [A-922500], the “axon regrowth / axon regeneration in DRG neuron culture” value in series [4] is recorded as “demonstrated axon regrowth”.
